Source: patent US20220372171A1, “ANTIBODY DIRECTED AGAINST TENOFOVIR AND DERIVATIVES THEREOF” (priority 2019, published 2022)

Columns and labels:
[1] = Urine TFV concentration by ELISA, Partners PrEP Study cohort; assay type: in vivo, human; conditions: Partners PrEP cohort on TDF or TDF/FTC; IQR=500-90,000 ng/mL
Experimental: (§1) It was hypothesized that TFV concentrations in urine, measured via an immunoassay, would correlate to those in plasma, the gold standard for short-term PrEP adherence in clinical trials, and associated with protection from HIV. To test this hypothesis, TFV levels were measured in stored urine samples collected from a randomly sampled cohort of HIV-negative men and women from the active PrEP arms in the Partners PrEP Study using enzyme-linked immunosorbent assay (ELISA) (lower limit of quantification [LLOQ] of 1000 ng/mL). Date-matched plasma TFV concentrations were measured using liquid chromatography-tandem mass spectrometry (LC-MS/MS) with an LLOQ of 0.31 ng/mL. Using the same cohort and a purposive sample of all HIV seroconverters on PrEP, a case-cohort analysis was conducted to assess the association between recent urine TFV level ≥1500 ng/mL, a threshold previously shown to accurately predict recent PrEP dosing, and protection from HIV. Weighted Cox proportional hazard models were used and adjusted for age, sex, and sexual behavior.

[2] = Plasma TFV concentration by LC-MS/MS, Partners PrEP Study cohort; assay type: in vivo, human; conditions: Partners PrEP cohort on TDF or TDF/FTC; IQR=1.6-103.0 ng/mL
Experimental: as §1

HIV [3] = assay: Nested case-control analysis: TFV level and protection from HIV acquisition (Partners PrEP Study); assay type: in vivo
Experimental: as §1
To assess the association between urine TFV concentrations ≥1,500 ng/mL and protection from HIV acquisition, a nested case-control analysis was conducted. Case samples collected on the date of the first evidence of HIV infection (i.e., first positive test for HIV-1 RNA) were matched with control samples collected at the same study visit month. […]

HIV [4] = assay: Urine TFV levels by immunoassay and HIV seroconversion (iPrEx-OLE); assay type: in vivo
Experimental: PrEP was provided to 1,085 men who have sex with men (MSM) and 140 transwomen (Grant et al., Lancet Infect Dis, 14: 820-829 (2014)). Urine was collected every 12 weeks and dried blood spots (DBS) were prepared 4 and 8 weeks after PrEP initiation, and then every 12 weeks. DBS assays for TFV-diphosphate (TFV-DP) and FTC-triphosphate (FTC-TP) were analyzed at all visits for participants who seroconverted in the iPrEx open-label extension (iPrEx-OLE) study and in a random subset of those who remained HIV-negative (Grant et al., supra). Hair samples for TFV and FTC were collected every 12 weeks for all who provided opt-in consent and analyzed among seroconverters and a random subset of those who remained HIV-negative (Gandhi et al., Lancet HIV, 3: e521-e528 (2016)). Participants who qualified for the correlation analysis required sample availability from all three biomatrices (urine, DBS, hair) at one or more visits over the duration of iPrEx-OLE (median 72 weeks). Additional urine samples from seroconverters (n=10) were included in the specific analysis looking at the association between urine TFV levels and seroconversion. All individuals in the study provided informed consent, including for sample storage and further testing, and the institutional review board from each study site approved the study.
The upper limit of quantification for the immunoassay was 50,000 ng/mL. Using previously described and validated LC-MS/MS-based methods, TFV-DP and FTC-TP concentration were measured in DBS (Zheng et al., J Pharm Biomed Anal, 122: 16-20 (2016)), and FTC and TFV concentrations were measured in hair (Liu et al., PLoS One, 9: e83736 (2014)).
For the seroconversion analysis, urine TFV concentrations via the immunoassay were compared using Kruskal-Wallis' test among individuals at the seroconversion visit; prior to the seroconversion visit; and those who remained HIV-negative. Receiver operating curves (ROC) were analyzed to identify two urine TFV cut-points and compared with the outcome of future HIV seroconversion. […] The sensitivity and specificity of the urine assay at an undetectable urine TFV level (<1,000 ng/mL) was compared with two levels of inadequate adherence defined by TFV-DP concentrations in DBS: the limit of quantification (<3.5 fmol/punch) and very low adherence (<350 fmol/punch, estimated average weekly adherence of <2 tablets/week) (Grant et al., Lancet Infect Dis, 14: 820-829 (2014)); and Anderson et al., Antimicrob Agents Chemother, 62: e01710-e01717 (2018)). The lower limit of detection for the urine assay (1,000 ng/mL) was selected as the optimal single cut-off based on analysis of ROC curves and prior data examining LC-MS/MS-based methods to quantify TFV levels in urine (Lalley-Chareczko et al., J Acquir Immune Defic Syndr, 79: 173-178 (2018)).

HIV [5] = conditions: daily doses; subjects at high risk through sexual transmission and drug use; cited from earlier work

C[C@H](Cn1cnc2c(N)ncnc21)OCP(=O)(O)O [TFV, tenofovir]
median TFV concentration in urine via ELISA [1]: 37,500 ng/mL
median TFV concentration in plasma via LC-MS/MS [2]: 65.4 ng/mL
reduction in HIV risk associated with plasma TFV >40 ng/mL (HIV [3]; plasma TFV >40 ng/mL by LC-MS/MS, 95% CI=54-96%): 87%
% HIV risk reduction (95% CI) (HIV [3]; urine TFV ≥1500 ng/mL by immunoassay, unadjusted, TDF/FTC or TDF-only PrEP): 73% (36 to 89%)
urinary TFV level at seroconversion (HIV [4]; at seroconversion (n=9), P<0.001, undetectable = <1,000 ng/mL): undetectable
association of decreasing strata of urine TFV levels with HIV seroconversion (HIV [4]; samples prior to seroconversion visit, P=0.03): associated with future HIV seroconversion
median urinary TFV level (HIV [4]; those who eventually seroconverted (n=11), interquartile range 1,000-12,500): 5,500 ng/mL
median urinary TFV level (HIV [4]; those who remained HIV negative (n=105), interquartile range 1,000-45,000): 15,000 ng/mL
reduced incidence of HIV (HIV [5]): 48.9%
